The text below walks through data of US12617757B2, “Compounds and modules for inhibition of pre-miR-21 and their use in treatment of certain cancers” (University of Florida Research Foundation, Incorporated, priority 2019, dated 2026).

The test system of one data set is pre-miR-21. The experiment in a line: In vitro RNase L cleavage of pre-miR-21 (FRET sensor, gel mapping). In kind it is biochemical. Here is the method: In Vitro Fluorescent RNA Cleavage. A model RNA hairpin^15 labeled with a 5′ 6-Fluorescein (6FAM) and 3′ Black Hole Quencher (IQ4) (5′ 6FAM-[…]-3′ IQ4; 5′ FAM/3′ BHQ model RNA) (SEQ ID NO: 3) or a miR-21 Hairpin Precursor RNA labeled with a 5′ 6-Fluorescein (6FAM) and 3′ Black Hole Quencher (IQ4) (5′ 6FAM-[…] […]-3′ IQ4; 5′ FAM/3′ BHQ miR-21 Hairpin Precursor RNA) (SEQ ID NO: 4) was purchased from Chemgenes with HPLC purification. Solutions of RNA (100 nM) were folded at 65° C. for 5 min and slowly cooled to room temperature in 1×RNase L Buffer (25 mM Tris-HCl, pH 7.4, 100 mM KCl) without MgCl2, β-mercaptoethanol or ATP. After folding, the RNA was supplemented with 10 mM MgCl2, fresh 7 mM β-mercaptoethanol, and 50 μM of ATP. Next, 100 nM of RNase L, prepared as described previously^22, and various concentrations of screening compounds were prepared in 1×RNase L Buffer and added to the RNA. […] The samples were incubated at room temperature for 60 min after which the fluorescence intensity (Ex: 485 nm, Em: 525 nm) was measured using a SpectraMax M5 plate reader or Biotek FLx800 plate reader. The percentage change in fluorescence intensity, where enhancement of fluorescence intensity was indicative of RNA cleavage, was determined by calculating the percentage change in sample fluorescent signals relative to the untreated fluorescent signal (Fi, %). […]

Data set [1] concerns proteome of MDA-MB-231 cells. The experiment in a line: Global proteomics profiling (LC-MS/MS) of MDA-MB-231 cells. In kind it is cell-based, human. The following applies: 50 nM, versus all proteins. The procedure: Global proteomics profiling using LC-MS/MS. The MDA-MB-231 cells treated with vehicle (DMSO) or 5 (50 nM) were washed with PBS, harvested by scraping, centrifuged at 1500×g for five minutes at 4° C. and then resuspended in PBS. Cells were lysed by sonication and lysate protein concentrations were determined using a Bradford assay (Bio-Rad). Protein samples (40 μg) were denatured with 6 M urea in 50 mM NH4HCO3, reduced with 10 mM tris(2-carboxyethyl)phosphine hydrochloride (TCEP) for 30 minutes, and then alkylated with 25 mM iodoacetamide for 30 minutes in the dark. Samples were diluted to 2 M urea with 50 mM NH4HCO3, and digested with trypsin (2 μL of 0.5 μg/μL) in the presence of 1 mM CaCl2) for 12 hours at 37° C. […] Samples were analyzed by LC-MS/MS (see below) and the MS data was processed with MaxQuant and Proteome Discoverer (see below).
LC-MS/MS analysis: Peptides were resuspended in water with 0.1% formic acid (FA) and analyzed using an EASY-nLC 1200 nano-UHPLC coupled to Q Exactive HF-X Quadrupole-Orbitrap mass spectrometer (Thermo Scientific). […]
MaxQuant analysis: The MS data was analyzed with MaxQuant (V1.6.1.0)^27 and searched against the human proteome (Uniprot) and a common list of contaminants (included in MaxQuant). […] The minimum peptide length was set to 6 amino acids and peptide re-quantification and label-free quantification (MaxLFQ) were enabled. […]

The test system of another data set is MDA-MB-231-Luc cells. Nature of the data set: In vivo MDA-MB-231 lung metastasis model in NOD/SCID mice. Details: species or system mouse. Conditions: 10 mg/kg; for lung nodules / metastasis to lung: 6 weeks. Here is the method:
FIGS. 46A-46C. In vivo mouse weights and Scrambled FISH staining of lung nodules with 5 treatment. […] Treatment of mice with 10 mg/kg of 5 started after 6 days of tumor cell injection. […] Dashed line indicates normalized signal intensity in vehicle samples.
Intravenous delivery of MDA-MB-231 cells to mice is a model of breast cancer metastasis and metastatic behavior can be affected by inhibition of miR-21, S. Yang, J. J. Zhang, X.-Y. Huang, Mouse models for tumor metastasis. Methods Mol. Biol. 928, 221-228 (2012).

In another data set the test system is pre-miR-21 BP RNA. Nature of the data set: In vitro Dicer processing of pre-miR-21 BP. In kind it is biochemical. The text has this:
In vitro Dicer processing. […] Cleavage products were resolved on a denaturing 15% polyacrylamide gel, which was imaged using a Molecular Dynamics Typhoon phosphorimager and quantified with Bio-Rad's QuantityOne software, normalizing to full length RNA.

Turning to `CCCN(CC(=O)N(CCC)CC(=O)N(CCC)CC(=O)N(CC(=O)NCCOCCOCCOCCOc1ccc(C=C2SC(Nc3ccccc3)=C(C(=O)OCC)C2=O)cc1O)Cc1cn(CCCNC(=O)CCCOc2ccc(-c3nc4cc(-c5ccc(N6CCN(C)CC6)cc5)ccc4[nH]3)cc2)nn1)C(=O)CN(Cc1cn(CCCNC(=O)CCCOc2ccc(-c3nc4cc(-c5ccc(N6CCN(C)CC6)cc5)ccc4[nH]3)cc2)nn1)C(C)=O` [Compound 5], the “cleavage sites in labeled pre-miR-21 WT RNA (gel mapping)” value in the data set with pre-miR-21 (5 and RNase L treatment) is “Cleavage was observed at U27, G25, C23, and G21”. The “fluorescence cleavage of pre-miR-21 labeled FRET sensor” value with pre-miR-21 (with RNase L) is “dose responsive increase in cleavage”. For the same compound, the “median log fold-change of predicted downstream protein targets of miR-21” value in data set [1] was “significantly upregulated relative to all proteins”. Also, the “weight changes compared to vehicle-treated mice” value in the data set on MDA-MB-231-Luc cells (over 42 days, NOD/SCID mice) is “did not cause significant weight changes”. In addition, in the data set on MDA-MB-231-Luc cells (q.o.d.), the “PDCD4 in lung nodule tissue sections” value is listed as “increased PDCD4 levels”; the “hematoxylin and eosin (HE) staining of lung tissue” value is “decreased hematoxylin and eosin (HE) staining”; the “mature miR-21 in lung nodule tissue (FISH)” value is “decreased mature miR-21”; the “pre-miR-21 in lung nodule tissue (FISH)” value is reported as “decreased”. Besides, the “lung nodules / metastasis to lung” value with MDA-MB-231-Luc cells (q.o.d.) was “decreased lung nodules”. Also, in the data set with MDA-MB-231-Luc cells (q.o.d., listed as Formula 5), the “lung nodules / metastasis to lung” value was “inhibited breast cancer metastasis to lung”, the “PDCD4 in lung nodule tissue sections” value is “increase in PDCD4 protein expression”, the “mature miR-21 in lung nodule tissue (FISH)” value was “diminished” and the “pre-miR-21 in lung nodule tissue (FISH)” value is given as “diminished”. Further, in the data set with MDA-MB-231-Luc cells (intraperitoneal injection, q.o.d.), the tolerability entry was “well tolerated”.

Regarding `CCCN(CC(=O)N(CCC)CC(=O)N(CCC)CC(=O)N(CC(N)=O)Cc1cn(CCCNC(=O)CCCOc2ccc(-c3nc4cc(-c5ccc(N6CCN(C)CC6)cc5)ccc4[nH]3)cc2)nn1)C(=O)CNCc1cn(CCCNC(=O)CCCOc2ccc(-c3nc4cc(-c5ccc(N6CCN(C)CC6)cc5)ccc4[nH]3)cc2)nn1` [Compound 2], the “protection from Dicer processing” value with pre-miR-21 BP RNA is “Protection with compound is observed at U26 and U27”.
